Laboratory results reported in patent US8343916B2, “Use of heat-shock protein 27 for cardiovascular disease prevention and treatment” (Ottawa Heart Institute Research Corporation, priority 2007, dated 2013).
Entries after “also recorded” stand apart in the source; their conditions may differ.

How the values were obtained:
[1] = rHSP27 pharmacokinetic experiments (subcutaneous injection); type: in vivo, mouse; conditions: 100 μg subcutaneously, male and female ApoE−/− mice; similar to female ApoE−/− HSP27o/e mice
Procedure: These were performed by injecting 100 μg of purified rHSP27 or control BSA (in PBS) subcutaneously into male and female ApoE^−/− mice and then checked serum rHSP27 levels at various times post-injection (n=3-6).

ApoE−/− mice = experiment: Short term (3 week) rHSP27 treatment of ApoE−/− mice on high fat diet; type: in vivo, mouse
Procedure: ApoE^−/− mice were maintained on a high fat diet and randomized to rHSP27 (100 ug) vs. phosphate buffered saline (PBS) twice a day for 3 weeks.
FIG. 22A depicts the experimental design: ApoE^−/− mice were maintained on a high fat diet and randomized to rHSP27 (100 ug) vs. phosphate buffered saline (PBS) twice a day for 3 weeks. The mice were then euthanized and blood samples were collected. After perfusing with phosphate-buffered saline (PBS) followed by 4% paraformaldehyde (PFA) in PBS via the left ventricle, the heart and aorta were removed and immersed in 4% PFA/PBS at 4° C. overnight. Serum lipoprotein separation was performed by fast-performance liquid chromatography (FPLC) analysis using a Superose 6 column (Pharmacia Biotech Inc., Piscataway, N.J., USA) on an HPLC system model 805 MANOMETRIC MODULE (GILSON). An enzymatic assay kit (Wako Pure Chemical Industries, Ltd, Osaka, Japan) was employed to determine cholesterol level. The content of the aortic atherosclerotic lesions were assessed using quantitative histochemical and immunohistochemical methods. Dark red oil red O staining identifying lipidoid deposits, while Haematoxylin and eosin (H&E) stained denote tissue histopathology.
Hematoxylin and eosin (H&E) stained tissue sections were also labeled for nuclear staining (blue fluorescent Hoechst 33258), apoptosis (green fluorescent TUNEL labeling) and macrophages accumulation (green fluorescent Mac-2).

Insulin = experiment: rHSP27 chaperone activity assay (DTT-induced aggregation of insulin); type: biochemical; conditions: Insulin 40 μM; Insulin:rHSP27 10:1 and 100:1; 43° C.; absorbance at 320 nm
Procedure: The rHSP27 was produced in E. coli. The rHSP27 so produced is >90% endotoxin free (endotoxin concentration assessed using Limulus Amebocyte Lysate gel-blot Assay: 2-3 EU/mg protein). Based on in vitro chaperone assay experiments, the protein is “functional”. […] The DTT-induced aggregation of insulin was performed in the absence and presence of rHSP27 in PBS solution, pH 7.4, to measure the chaperone activity of rHSP27. Insulin (40 μM) with different concentration of rHSP27 (Insulin: rHSP27=10:1 and 100:1 and no rHSP27) in PBS were incubated for 10 min at 43° C., respectively. Aggregation was monitored by measure the absorbance at 320 nm in Bioteck Synergy Mx spectrophotometer for 30 min at 43° C. after add DTT to a final concentration of 20 mM.

[2] = target: T1, scavenger receptor A (SR-A) (Mus musculus, UniProt P30204); experiment: Immunolabeling of recombinant HSP27 binding to macrophage surface and SR-A
T1 construct: detection of a ˜50 kDa band corresponding to SR-A in these cells; endogenous in cells; host or cells: J774 mouse macrophages (untransfected); mouse peritoneal macrophages
T1 sequence (P30204 1-458): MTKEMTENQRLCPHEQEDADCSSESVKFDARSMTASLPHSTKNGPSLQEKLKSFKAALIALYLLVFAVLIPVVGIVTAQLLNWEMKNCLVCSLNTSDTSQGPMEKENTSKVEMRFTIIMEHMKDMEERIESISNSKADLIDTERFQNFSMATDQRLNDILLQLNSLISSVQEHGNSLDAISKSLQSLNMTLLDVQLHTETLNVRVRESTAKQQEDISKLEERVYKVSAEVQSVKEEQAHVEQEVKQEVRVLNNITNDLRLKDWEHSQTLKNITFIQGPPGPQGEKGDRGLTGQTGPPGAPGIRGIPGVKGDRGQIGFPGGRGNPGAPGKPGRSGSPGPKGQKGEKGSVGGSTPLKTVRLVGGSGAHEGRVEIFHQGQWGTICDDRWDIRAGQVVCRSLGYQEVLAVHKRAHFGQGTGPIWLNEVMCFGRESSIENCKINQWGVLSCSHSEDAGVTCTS
Procedure: J774 cells treated with recombinant HSP27 (5 μg/ml) with or without fucoidan (10 μg/ml) were fixed with BD Cytofix (BD Biosciences, Mississauga, ON) and blocked with 2% bovine serum albumin (BSA) for 2 hours. Antibodies against human HSP27 (Chemicon, 1:200) and scavenger receptor A (Serotec, 1:200) were incubated overnight at 4° C. Visualization of substrates was done using secondary antibodies conjugated to fluoroscein (for HSP27) and Texas Red (for SR-A). Negative controls included incubation with control IgG and secondary antibody alone.
Cells were grown on cover slips, and transfected as described above. Cells were fixed with BD Cytofix as directed by the manufacturer and mounted with Dako Fluorescent mounting media (Dako Cytomation, Mississauga, ON). Coverslips were visualized with an Olympus FluoView FV1000 confocal microscope (Olympus America Inc, Center Valley, Pa.) at 100× magnification, using sequential scanning to reduce any potential non-specific excitation of the different fluorophores.
Cells were also treated with an SR-A specific competitive ligand (fucoidan, 10 ug/ml) before administration of HSP27 (bottom panel). Co-localization is seen as a yellow colour. […] Macrophages from SR-A null mice were harvested and incubated with recombinant HSP27 (5 μg/ml) for 2 hours at 4° C. Immunolabeling was performed as described above.

[3] = tested on: macrophages (acLDL uptake via the scavenger receptor A); experiment: Fluorescent acLDL uptake by macrophages; type: cell-based, mouse
Procedure: Cells were treated with Dil-acLDL (5 μg/ml) for 4 hours at 37° C., in the presence of recombinant HSP27 (5 μg/ml) and/or fucoidan (10 μg/ml). Cells were harvested by gentle cell scraping in 100 μl of PBS. Each sample was analyzed for acLDL fluorescence on a BMG PolarStar plate reader (excitation: 510 nm, emission: 570 nm) and normalized to total cell number using the Vi-Cell cell counter (Beckman Coulter, Mississauga, ON).
Foam cell formation is a hallmark process in the development of atherosclerosis, and prevention of lipid uptake by macrophages may serve to reduce overall lesion development and inflammation. If HSP27 can bind the SR-A in vitro, and there is an atheroprotective effect of HSP27 in vivo, HSP27 may prevent the SR-A from taking up atherogenic lipids such as acLDL and becoming foam cells. In support of this, mouse macrophages were cultured in vitro in the presence of fluorescently labeled acLDL for […], and acLDL uptake was measured using a fluorometer and normalized to total cell number.
Extracellular HSP27 inhibits uptake of acLDL by macrophages via the scavenger receptor A. Fluorescently labeled acLDL (5 μg/ml) was given to macrophages in the presence (right columns) or absence (left columns) of recombinant HSP27 (5 μg/ml). […] Fluorescent uptake was measured and normalized to total cell number.

[4] = tested on: macrophages (IL-1β, IL-10 release); experiment: Cytokine release from acLDL-treated macrophages (western blot of conditioned media); type: cell-based, mouse; conditions: recombinant HSP27 5 μg/ml, acLDL 5 ug/ml, 30 minutes and 4 hours
Procedure: (§1) Cell lysates were obtained using a RIPA buffer [1% NP-40, 0.5% sodium deoxycholate, 0.1% SDS, Complete™ inhibitor in PBS]. Cells were washed twice with PBS, lysed in RIPA buffer, collected using a cell scraper, and placed on ice for 45 minutes. Cell debris was collected by centrifugation at 15,000×g for 20 minutes, and the supernatant containing the cellular protein was isolated. Protein was quantified using Bradford reagent (Sigma). For western blotting, 50 μg of whole cell protein was loaded onto a 10% SDS-PAGE gel and separated at 120V using gel electrophoresis. Protein was then transferred to a PVDF membrane (BioRad, Hercules, Calif.) for 2 hours at 60V. Membranes were then subjected to western blotting using the following antibodies: anti-HSP27 (Santa Cruz, 1:200); anti-SR-A (Chemicon, 1:2000); anti-IL-1β (R&D, 1:500); anti-IL-10 (Santa Cruz, 1:200).
Fluorescently labeled acLDL (5 ug/ml) was given to macrophages in the presence or absence of recombinant HSP27 (5 μg/ml). Conditioned media was collected after 30 minutes and 4 hours and subjected to western blotting for IL-1β (FIG. 7A) and IL-10 (FIG. 7B). Addition of HSP27 caused a decrease in the acLDL-induced secretion of IL-1β into the extracellular space.

Human macrophages (U937) = experiment: HSP27 secretion from human macrophages (Western blot of conditioned media); type: cell-based
Procedure: as §1
Human macrophages (U937) were plated in replicates at a density of […] per well and treated with estradiol or acLDL. […] Macrophages were subjected to increasing concentrations of acLDL (1 to 100 μg/mL) for 24 hours.

aortic endothelial cells = experiment: HSP27 secretion from aortic endothelial cells (Western blot); type: cell-based, human; conditions: DPN 1 nM, 24 h
Description: (§2) HSP27 was detected in the extracellular space by Western blot.

[5] = tested on: aortic smooth muscle cells; experiment: HSP27 secretion from aortic smooth muscle cells (Western blot); type: cell-based, human; conditions: DPN 1 nM, 24 h
Description: as §2

rHSP27: recombinant human heat shock protein 27 produced in E. coli, purified, injected subcutaneously
serum rHSP27 level with twice daily injection schedule [1]: effective to maintain a serum level of rHSP27
body weight (ApoE−/− mice; 100 ug BID, 3 weeks): did not change
cholesterol levels contained by VLDL and IDL/LDL (FPLC) (ApoE−/− mice; 100 ug BID, 3 weeks): reduces cholesterol levels contained by VLDL and IDL/LDL
number of WBC (peripheral blood smears) (ApoE−/− mice; 100 ug BID, 3 weeks): did not change
reduction in abundance of aortic sinus lesion macrophages (ApoE−/− mice; 100 ug BID, 3 weeks, Mac-2): approximately 45%
reduction in abundance of apoptotic macrophages in aortic sinus lesion (ApoE−/− mice; 100 ug BID, 3 weeks, TUNEL): ~80%
reduction in aortic sinus lesion area (ApoE−/− mice; 100 ug BID, 3 weeks, p=0.002): 26%
reduction in aortic wall (en face) lesion area (ApoE−/− mice; 100 ug BID, 3 weeks, p=0.01): 27%
liver cholesterol content (ApoE−/− mice; 100 ug BID, after the 3rd week): without a rise
serum total cholesterol levels lower by (ApoE−/− mice; 100 ug BID, after the 3rd week, vs PBS): 41%
adverse events when injected in mice (ApoE−/− mice; mouse, in vivo): did not cause adverse events
atherogenesis in ApoE−/− mice (ApoE−/− mice; mouse, in vivo): efficacious in reducing atherogenesis
chaperone activity (in vitro aggregation and refolding assays) (Insulin): functional

fucoidan [reference compound]
HSP27 binding to SR-A in the presence of competitor ([2]; fucoidan 10 ug/ml before HSP27): reduced
inhibition of acLDL uptake by macrophages ([3]; fucoidan 10 ug/ml before acLDL or HSP27): capable of inhibiting this process

recombinant HSP27: Recombinant HSP27 was purchased from Stressgen; heat shock protein 27 added extracellularly to macrophages
HSP27 binding to the cell surface of macrophages from SR-A null mice ([2]; 5 μg/ml, 2 hours at 4° C.): completely abolished
binding to surface of macrophages and co-localization with SR-A ([2]; 5 μg/ml, 2 hours at 4° C., confocal microscopy): capable of binding the surface of macrophages, and co-localizes with SR-A
reduction in acLDL uptake by macrophages ([3]; recombinant HSP27 5 μg/ml, fluorescently labeled acLDL 5 μg/ml, normalized to total cell number): 41%
acLDL-induced secretion of IL-1β [4]: decrease
release of IL-10 [4]: increased
acLDL-induced secretion of IL-1β ([4]; listed as HSP27): considerable decrease; also recorded: reduced

C[C@]12CC[C@@H]3c4ccc(O)cc4CC[C@H]3[C@@H]1CC[C@@H]2O [E2, 17β-estradiol]
intracellular HSP27 protein levels (Human macrophages (U937)): increased slightly
colocalization of HSP27 with lysosome marker LAMP1 (Human macrophages (U937); 100 nmol/L E2 overnight): displayed colocalization of HSP27 (red) and LAMP1
HSP27 release into the media (Human macrophages (U937); E2 for 24 hours, compared to controls): dose-dependent increase
time of maximum HSP27 secretion (Human macrophages (U937); estrogen-induced release over time): 24 h

N#CC(Cc1ccc(O)cc1)c1ccc(O)cc1 (stereo not shown) [DPN]
HSP27 secretion upon stimulation of ERβ (Human macrophages (U937); DPN 1 nM, 4 h or 24 h): enhanced
HSP27 secretion from endothelial cells (aortic endothelial cells): increase in HSP27 secretion
HSP27 secretion from smooth muscle cells [5]: not smooth muscle cells
